Results reported in publication PMC5118709, “Identification of Polo-like kinase 1 interaction inhibitors using a novel cell-based assay” (Scientific Reports, 2016).
Like-named read-outs stand apart in the source and are kept apart here.

Biological target: GST-PBD367-603 of Plk1 (Homo sapiens, UniProt P53350)
Assay: fluorescence polarization assay PBD-phosphopeptide
Details: for activity in the FP assay: SAR
Procedure: In this assay, an optimal phosphopeptide for PBD binding is coupled with a FITC fluorophore and its binding to purified recombinant PBD of Plk1 is monitored by the change in polarization of incident light.
The FP buffer was composed of 10 mM Tris pH 8.0, 50 mM NaCl, 1 mM EDTA, 20% glycerol and 0.1% NP-40. The peptide (final concentration 10 nM) was always added to the wells of non-binding, black, 384-well plates, 1 hour after the addition of the protein with the buffer (+/− treatment, 10% DMSO). […] EC65s were used to perform the competitive assays with the non-labeled peptides and with the inhibitors. FP Inhibition was calculated with the formula: 100 − [((mPsample − mPfree peptide)\(mPDMSO − mPfree peptide)) × 100]. […] (Map peptide), and corresponding non-labeled peptides are identical but without FITC in N-terminal. […] Inhibition curves were fitted with GraphPad (Prism software).

Sequence of GST-PBD367-603 of Plk1 (P53350 367-603): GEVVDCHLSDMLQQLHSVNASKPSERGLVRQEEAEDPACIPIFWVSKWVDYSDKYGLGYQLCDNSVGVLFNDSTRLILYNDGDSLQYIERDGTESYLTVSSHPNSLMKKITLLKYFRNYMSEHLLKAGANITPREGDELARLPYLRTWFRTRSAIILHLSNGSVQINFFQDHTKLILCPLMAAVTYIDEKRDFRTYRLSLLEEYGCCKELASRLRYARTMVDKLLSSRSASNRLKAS

IC50 (read-out: FP - IC50, Table S3) [µM]	FP - IC50 (μM) (Table S3)	SMILES	other results
7.2	–	Cc1ccc(C(=O)OCCS(=O)(=O)c2ccc(C(F)(F)F)cn2)cc1 [Cpd 123]	–
–	–	O=C(OCCS(=O)(=O)c1ccccn1)c1ccccc1 [Cpd 124]	IC50 (FP - IC50 (μM), Table S3): 68.6 ± 18.5 µM; IC50 (IC50 in FP, GST-PBD367-603 38 nM, 1 h pre-incubation, FITC-phosphopeptide 10 nM, Fig. 4C): 56 µM
11.9 ± 7.2	–	O=C(OCCS(=O)(=O)c1ccc(C(F)(F)F)cn1)c1cccc(Cl)c1 [Cpd 125]	–
4.3	–	O=C(OCCS(=O)(=O)c1ncccc1Cl)c1cccc(Cl)c1 [Cpd 126]	–
187	–	O=C(OCCS(=O)(=O)c1ccccn1)c1cccc(Cl)c1 [Cpd 127]	–
8.4	–	O=C(OCCS(=O)(=O)c1ncccc1C(F)(F)F)c1cccc(Cl)c1 [Cpd 128]	–
8.5	–	O=C(OCCS(=O)(=O)c1ccc(C(F)(F)F)cn1)c1ccccc1 [Cpd 129]	–
7.8	–	O=C(OCCS(=O)(=O)c1ccc(C(F)(F)F)cn1)c1ccc(Cl)c(Cl)c1 [Cpd 130]	–
70.5	–	O=C(OCCS(=O)(=O)c1ccc(Cl)cn1)c1cccc(Cl)c1 [Cpd 131]	–
26.1	–	CC(C)(C)c1ccc(C(=O)OCCS(=O)(=O)c2ccc(C(F)(F)F)cn2)cc1 [Cpd 132]	–
5.4	–	O=C(OCCS(=O)(=O)c1ccc([N+](=O)[O-])cn1)c1cccc(Cl)c1 [Cpd 133]	–
–	No inhibition	O=S(=O)(CC(O)COc1ccccc1)c1ccccn1 (centres unmarked) [Cpd 136]	–
–	No inhibition	Cc1ccc(S(=O)(=O)CCC(=O)Nc2cccc(Cl)c2)cc1 [Cpd 137]	–
–	No inhibition	Cc1ccc(S(=O)(=O)CCC(=O)OCc2ccc(Cl)c(Cl)c2)cc1 [Cpd 138]	–
–	No inhibition	O=[N+]([O-])c1cccc(S(=O)(=O)NCCOc2cccc(Cl)c2Cl)c1 [Cpd 139]	–
–	No inhibition	Cc1c(Cl)cccc1NC(=O)CCS(=O)(=O)c1ccccc1 [Cpd 140]	–
–	No inhibition	CC(CC(=O)Nc1ccc(Cl)cc1)S(=O)(=O)c1ccc(Cl)cc1 (centres unmarked) [Cpd 141]	–
–	No inhibition	O=C(CS(=O)(=O)c1cc(C(F)(F)F)cc(C(F)(F)F)c1)Nc1ccccc1F [Cpd 143]	–
–	No inhibition	O=C(CS(=O)(=O)c1ccc(C(F)(F)F)cn1)NNC(=O)c1ccccc1 [Cpd 144]	–
–	No inhibition	Cc1ccc(NC(=O)CCS(=O)(=O)c2ccccc2)c(Br)c1 [Cpd 145]	–
–	No inhibition	Cc1cc(C(F)(F)F)cc(SCCO)n1 [Cpd 146, 2-((6-methyl-4-(trifluoromethyl)pyridin-2-yl)thio) ethanol]	–
–	No inhibition	Cc1cc(C(F)(F)F)cc(SCCOC(=O)c2cccc(Cl)c2)n1 [Cpd 147, 2-((6-methyl-4-(trifluoromethyl)pyridin-2-yl)thio)ethyl 3-chlorobenzoate]	activity in the FP assay: activity was abolished
–	No inhibition	Cc1cc(C(F)(F)F)cc([S+]([O-])CCOC(=O)c2cccc(Cl)c2)n1 (centres unmarked) [Cpd 148, 2-((6-methyl-4-(trifluoromethyl)pyridin-2-yl)sulfinyl)ethyl 3-chlorobenzoate]	activity in the FP assay: activity was abolished
–	No inhibition	Cc1cc(C(F)(F)F)cc(SCCOC(=O)c2cccc(OC(F)(F)F)c2)n1 [Cpd 149]	–
–	No inhibition	Cc1cccc(C(=O)OCCSc2cc(C(F)(F)F)cc(C)n2)c1 [Cpd 150]	–
41.7	–	Cc1cc(C(F)(F)F)cc(S(=O)(=O)CCOC(=O)c2cccc(OC(F)(F)F)c2)n1 [Cpd 151]	–
54.4	–	Cc1cccc(C(=O)OCCS(=O)(=O)c2cc(C(F)(F)F)cc(C)n2)c1 [Cpd 152]	–
–	No inhibition	Cc1cc(C(F)(F)F)cc(SCCOC(=O)c2cccc(Br)c2)n1 [Cpd 153]	–
36.8	–	Cc1cc(C(F)(F)F)cc(S(=O)(=O)CCOC(=O)c2cccc(Br)c2)n1 [Cpd 154]	–
–	No inhibition	Cc1cc(C(F)(F)F)cc(SCCOC(=O)c2cc(Cl)cc(Cl)c2)n1 [Cpd 155]	–

SMILES	IC50 (read-out: FP - IC50, Table S3) [µM]	FP - IC50 (μM) (Table S3)	other results
O=C(NCCS(=O)(=O)c1ccc(C(F)(F)F)cn1)c1ccc(Cl)cc1 [Cpd 142]	–	No inhibition	activity in the FP assay: activity was abolished
